Laboratory results reported in patent US20020115611A1, “Methods for screening GABA-modulatory compounds for specified pharmacological activities” (priority 1999, published 2002).

Tests used:
[1] = biological target: GABAA receptors (Ro15-1788 / benzodiazepine site), rat cortex membranes; experiment: Ro15-1788 competition binding assay, rat cortex membranes; settings: displacement of 3H Ro15-1788, rat cortex membranes
Procedure: Rat cortex membranes are prepared by homogenizing one or two previously frozen rat cortexes in 30 ml of 25 mM Tris Buffer, pH 7.4. The homogenate is centrifuged for 10 minutes at 500×g. The supernatant is then transferred to a clean centrifuge tube and the pellet discarded. The supernatant is spun for 20 minutes at 48,000×g. The supernatant from this spin is discarded and the pellet is resuspended in 30 ml of 25 mM Tris Buffer, pH 7.4 and centrifuged for an additional 10 minutes at 48,000×g. The supernatant from the final spin is discarded and the membrane pellet is resuspended in 100 mL Tris buffer per gram of cortex used.
The cortex membrane preparation is used to perform either percent inhibition or competition binding assays. In order to determine percent inhibition 300 μl of resuspended membranes are mixed with 200 μl ^3H labeled Ro15-1788 (final concentration 2.5 nM) and incubated for 1 hour on ice in the presence of 2 μl test compound in DMSO (final concentration 4 μM). Membranes are harvested onto untreated filtermats. The filtermats are dried and the ^3H Ro15-1788 signal is counted in a scintillation counter. Nonspecific binding is determined by displacement of ^3H Ro15-1788 with 10 μM Diazepam (RBI) or any other compound known to bind tightly at the benzodiazepine site.
Ki values are calculated according to the Cheng-Prussof equation.

rats [2] = experiment: bicuculline seizure threshold test; assay type: in vivo; settings: rat; proconvulsant activity; NS = no statistically significant effect versus vehicle
Excerpt: (§1) A statistically significant effect in the spatial water maze, step-down passive avoidance, spontaneous locomotor activity, Porsolt swim test, or the elevated plus maze models is defined as p<0.05 using a valid parametric statistical test. Likewise, no statistically significant effect is defined in these models as p>0.05 using a valid parametric statistical test. No statistically significant effect for either of the seizure threshold models is defined as a decrease of less than 25% in the seizure threshold in the presence of a seizure inducing drug or a result that is not significant at the p<0.05 level.
This test provides a measure of whether the test compound is proconvulsant by measuring whether the test compound produces any change in the dose of the seizure inducing drug, bicuculline, needed to elicit seizures in rats. […]
Adult male Sprague-Dawley rats (175-300 g) are weighed and placed in a rat restrainer. […] Patency of catheter placement is tested by backflow of venous blood and ready infusion of less than 2 ml of saline solution. […]
Test compound is infused 5 minutes prior to the start of bicuculline infusion. […] The time elapsed from the start of bicuculline infusion to first myoclonic jerk (first head/neck twitch), the initiation of full myoclonus (writhing), and final forelimb extension is all recorded using a digital stopwatch. […]

[3] = biological target: α1β2γ2 GABAA subtype receptor (Homo sapiens, UniProt P14867+P18507); experiment: cell-based; settings: human subunits, GABA at EC10
Excerpt: (§2) The in vitro efficacy and EC50 value of the test compound may be determined by measuring the chloride flux at the surface of a cell expressing the α,β, and γ subunits of the GABAA receptor in response to GABA by the two electrode voltage-clamp technique. While a variety of cells are suitable for use herein, the preferred cells used in this technique are Xenopus laevis oocytes that have been injected with non-polyadenylated CRNA coding for human derived α, βand γ GABAA subunits. The preferred form of the γ subunit is the normally expressed long form although an alternatively spliced form may be used.
(§3) Assays are carried out as described previously in White and Gurley, 1995 and White, et al., 1995. Xenopus laevis oocytes are enzymatically isolated and injected with non-polyadenylated cRNA for human derived α, β and γ GABAA subunits, respectively. In more preferred embodiments cRNA for the α1β2γ2, α2β3γ2, α3β3γ2, and α5β3γ2 subunit combinations are injected. Only one of these subunit combinations is injected per cell. For each subunit combination, sufficient message is injected to result in current amplitudes of >10 nA when 1 μM GABA is applied. Electrophysiological recordings are carried out using the two electrode voltage-clamp technique at a membrane holding potential of −70 mV.
(§4) Compounds are evaluated against a GABA concentration that evokes <10% (EC10) of the maximal evocable GABA current. Each oocyte is exposed to increasing concentrations of compound in order to evaluate a concentration/effect relationship.
(§5) Specificity of a compound for the Ro15-1788 site is determined following completion of the concentration/effect curve. After washing the oocyte sufficiently to remove previously applied compound, the oocyte is exposed to GABA and 1 μM Ro15-1788, followed by exposure to GABA, 1 μM Ro15-1788, and compound. Percent change due to addition of compound is calculated as described above. Any percent change observed in the presence of Ro15-1788 is subtracted from the percent changes in current amplitude observed in the absence of 1 μM Ro15-1788. These net values are used for the calculation of average activity and EC50 values.
(§6) To evaluate average activity and EC50 values, the concentration/effect data are averaged across cells and fit to the logistic equation. Average values are reported as mean±standard error.

[4] = biological target: α2β3γ2 GABAA subtype receptor (Homo sapiens, UniProt P18507+P47869); experiment: cell-based; settings: oocyte electrophysiology EC50 α2β3γ2, Xenopus laevis oocytes, human subunits, GABA at EC10
Excerpt: as §2, §3, §4, §5, §6

[5] = biological target: α3β3γ2 GABAA subtype receptor (Homo sapiens, UniProt P18507+P34903); experiment: cell-based; settings: oocyte electrophysiology EC50 α3β3γ2, Xenopus laevis oocytes, human subunits, GABA at EC10
Excerpt: as §2, §3, §4, §5, §6

[6] = biological target: α5β3γ2 GABAA subtype receptor (Homo sapiens, UniProt P18507+P31644); experiment: cell-based; settings: human subunits, GABA at EC10
Excerpt: as §2, §3, §4, §5, §6

rats [7] = experiment: step-down passive avoidance; assay type: in vivo; settings: rat, IV; cognitive enhancement (Table X)
Excerpt: as §1
In step-down passive avoidance a rat is placed on a platform located in the center of an electrified grid floor that is contained within a large (45 cm×45 cm×50 cm) white translucent Plexiglas® enclosure. The natural inclination of the rat is to step off the platform and investigate its surroundings. […] Each time the animal steps off the platform it receives a mild foot shock of 2 mAmps×6 sec. Following each shock the animal is removed from the box, placed in its cage for a one minute inter-trial interval, and then returned to the platform. The latency to step down on each trial, the number of trials taken to reach criterion during training and the retention latency are collected.
Testing is conducted approximately 24 hrs. after training. Drug-free animals are placed on the platform in the box in which they will have been trained and the latency to step down onto the grid floor is recorded for one trial as a measure of memory retention.

[8] = Xenopus laevis oocytes, negative = inverse agonism

Sequence of α5β3γ2 GABAA subtype receptor (P31644 32-462): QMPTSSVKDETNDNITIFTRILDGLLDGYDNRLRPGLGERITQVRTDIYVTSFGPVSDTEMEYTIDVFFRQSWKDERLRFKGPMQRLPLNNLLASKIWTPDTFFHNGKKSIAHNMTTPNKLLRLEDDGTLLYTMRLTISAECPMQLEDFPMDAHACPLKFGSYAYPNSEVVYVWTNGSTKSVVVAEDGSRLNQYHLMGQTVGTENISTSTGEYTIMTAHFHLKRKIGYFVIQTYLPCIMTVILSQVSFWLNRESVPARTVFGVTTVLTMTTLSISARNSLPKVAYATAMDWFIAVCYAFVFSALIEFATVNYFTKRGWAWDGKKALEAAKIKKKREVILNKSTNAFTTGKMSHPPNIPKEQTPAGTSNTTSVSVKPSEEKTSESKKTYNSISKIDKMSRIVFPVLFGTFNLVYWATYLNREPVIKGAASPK
Sequence of α5β3γ2 GABAA subtype receptor (P28472 26-473 partner): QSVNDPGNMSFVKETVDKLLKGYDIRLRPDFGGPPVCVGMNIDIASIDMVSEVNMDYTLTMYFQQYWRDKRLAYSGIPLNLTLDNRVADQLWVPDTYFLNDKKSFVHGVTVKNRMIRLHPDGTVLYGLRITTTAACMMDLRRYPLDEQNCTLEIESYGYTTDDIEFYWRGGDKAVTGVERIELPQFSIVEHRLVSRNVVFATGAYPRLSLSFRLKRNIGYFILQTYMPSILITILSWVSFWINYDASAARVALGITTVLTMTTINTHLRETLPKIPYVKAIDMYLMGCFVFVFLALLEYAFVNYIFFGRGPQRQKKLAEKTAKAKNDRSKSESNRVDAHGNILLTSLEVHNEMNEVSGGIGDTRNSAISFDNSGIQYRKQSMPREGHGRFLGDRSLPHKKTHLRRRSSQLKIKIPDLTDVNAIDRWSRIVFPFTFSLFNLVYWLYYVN
Sequence of α5β3γ2 GABAA subtype receptor (P18507 40-475): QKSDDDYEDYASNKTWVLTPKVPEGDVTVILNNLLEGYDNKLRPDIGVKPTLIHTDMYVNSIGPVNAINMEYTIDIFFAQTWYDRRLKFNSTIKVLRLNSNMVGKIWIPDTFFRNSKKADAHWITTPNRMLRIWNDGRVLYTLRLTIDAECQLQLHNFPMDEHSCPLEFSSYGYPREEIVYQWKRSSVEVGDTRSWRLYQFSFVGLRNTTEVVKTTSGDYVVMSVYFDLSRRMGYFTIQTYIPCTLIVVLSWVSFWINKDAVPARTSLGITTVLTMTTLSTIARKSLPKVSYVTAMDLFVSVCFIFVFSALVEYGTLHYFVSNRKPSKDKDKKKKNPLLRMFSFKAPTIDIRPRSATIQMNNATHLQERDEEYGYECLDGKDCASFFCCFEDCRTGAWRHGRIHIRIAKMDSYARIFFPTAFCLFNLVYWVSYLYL
Sequence of α1β2γ2 GABAA subtype receptor (P14867 28-456): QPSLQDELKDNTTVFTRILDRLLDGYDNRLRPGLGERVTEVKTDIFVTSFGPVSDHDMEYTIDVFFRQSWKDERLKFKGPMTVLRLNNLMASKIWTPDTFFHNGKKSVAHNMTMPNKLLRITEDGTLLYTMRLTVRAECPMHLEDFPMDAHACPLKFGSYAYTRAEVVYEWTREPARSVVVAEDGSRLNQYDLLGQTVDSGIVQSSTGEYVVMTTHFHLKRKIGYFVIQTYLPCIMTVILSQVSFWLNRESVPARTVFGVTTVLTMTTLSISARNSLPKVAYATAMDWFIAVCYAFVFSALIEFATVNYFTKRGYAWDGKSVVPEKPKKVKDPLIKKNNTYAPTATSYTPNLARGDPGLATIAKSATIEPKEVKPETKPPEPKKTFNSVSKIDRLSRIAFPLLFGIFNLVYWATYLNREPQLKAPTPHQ
Sequence of α1β2γ2 GABAA subtype receptor (P47870 25-512 partner limits assumed): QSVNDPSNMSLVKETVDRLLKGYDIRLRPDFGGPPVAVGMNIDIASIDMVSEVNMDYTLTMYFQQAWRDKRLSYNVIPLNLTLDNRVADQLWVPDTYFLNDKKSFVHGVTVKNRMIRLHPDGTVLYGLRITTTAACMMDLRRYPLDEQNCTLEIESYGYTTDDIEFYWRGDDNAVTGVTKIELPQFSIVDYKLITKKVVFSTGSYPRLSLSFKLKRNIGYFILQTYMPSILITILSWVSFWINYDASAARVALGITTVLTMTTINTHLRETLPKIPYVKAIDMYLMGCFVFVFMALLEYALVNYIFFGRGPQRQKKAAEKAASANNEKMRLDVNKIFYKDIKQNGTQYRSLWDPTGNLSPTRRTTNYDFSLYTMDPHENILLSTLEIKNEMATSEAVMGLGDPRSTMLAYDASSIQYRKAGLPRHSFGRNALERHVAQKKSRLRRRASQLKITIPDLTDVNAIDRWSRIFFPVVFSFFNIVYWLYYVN
Sequence of α1β2γ2 GABAA subtype receptor (P18507 40-475): as the sequence (P18507 40-475) above
Sequence of α2β3γ2 GABAA subtype receptor (P47869 29-451): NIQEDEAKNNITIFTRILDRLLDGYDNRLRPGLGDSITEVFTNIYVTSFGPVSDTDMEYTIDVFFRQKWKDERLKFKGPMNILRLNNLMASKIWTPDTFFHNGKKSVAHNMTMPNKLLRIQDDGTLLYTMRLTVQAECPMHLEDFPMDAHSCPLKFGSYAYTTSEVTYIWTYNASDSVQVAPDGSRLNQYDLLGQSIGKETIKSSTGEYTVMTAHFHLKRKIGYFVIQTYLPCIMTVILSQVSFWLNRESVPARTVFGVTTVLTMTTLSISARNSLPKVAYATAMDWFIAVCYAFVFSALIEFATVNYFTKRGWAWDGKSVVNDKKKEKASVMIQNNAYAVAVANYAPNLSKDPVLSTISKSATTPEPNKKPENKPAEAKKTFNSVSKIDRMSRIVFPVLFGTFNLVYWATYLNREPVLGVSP
Sequence of α2β3γ2 GABAA subtype receptor (P28472 26-473 partner): as the sequence (P28472 26-473 partner) above
Sequence of α2β3γ2 GABAA subtype receptor (P18507 40-475): as the sequence (P18507 40-475) above
Sequence of α3β3γ2 GABAA subtype receptor (P34903 29-492): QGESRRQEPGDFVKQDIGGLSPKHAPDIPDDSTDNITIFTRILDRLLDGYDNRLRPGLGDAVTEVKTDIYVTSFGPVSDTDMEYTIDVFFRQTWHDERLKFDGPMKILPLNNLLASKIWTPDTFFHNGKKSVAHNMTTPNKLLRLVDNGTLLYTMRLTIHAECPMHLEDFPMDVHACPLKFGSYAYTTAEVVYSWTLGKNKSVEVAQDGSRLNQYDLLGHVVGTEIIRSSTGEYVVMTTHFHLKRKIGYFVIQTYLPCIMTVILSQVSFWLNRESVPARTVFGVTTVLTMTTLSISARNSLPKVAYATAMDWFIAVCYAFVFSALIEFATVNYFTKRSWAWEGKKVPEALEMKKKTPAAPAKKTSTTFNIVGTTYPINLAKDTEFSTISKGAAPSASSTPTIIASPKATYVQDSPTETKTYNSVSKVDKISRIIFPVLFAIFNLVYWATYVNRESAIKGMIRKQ
Sequence of α3β3γ2 GABAA subtype receptor (P28472 26-473 partner): as the sequence (P28472 26-473 partner) above
Sequence of α3β3γ2 GABAA subtype receptor (P18507 40-475): as the sequence (P18507 40-475) above

For `O=C1C2C=Nc3ccccc3C2=NN1c1ccccc1` (stereo not drawn) [CGS 8216, reference compound], the Ki [1] was 0.2 nM, the “bicuculline seizure threshold, mean percent decrease in seizure threshold over the dose range studied” value (rats [2]) was 50% and the “oocyte electrophysiology maximum potentiation α1β2γ2” value [3, 8] was −26%. For the same compound, the EC50 ([3]; oocyte electrophysiology EC50 α1β2γ2, Xenopus laevis oocytes) was 0.7 nM, the EC50 [4] was 2 nM and the EC50 [5] was 2 nM. The “oocyte electrophysiology maximum potentiation α5β3γ2” value [6, 8] was −39%, the EC50 ([6]; oocyte electrophysiology EC50 α5β3γ2, Xenopus laevis oocytes) was 1 nM and the “cognitive model: step-down passive avoidance, minimal efficacious dose” value (rats [7]) was 0.06 mg/kg.
